Measured values from patent publication US20250179103A1, “6-OXODECAHYDROPYRROLO[1,2-A][1,5]DIAZOCINE AND 6-OXODECAHYDRO-4H-PYRROLO[2,1-D][1,5]THIAZOCINE DERIVATIVES AS STAT3 AND STAT6 MODULATORS FOR THE TREATMENT OF CANCER AND INFLAMMATORY CONDITIONS” (Recludix Pharma, Inc., priority 2022, published 2025).

Experiments:
[1] = target: T1, Recombinant STAT6 protein (STAT6(W123-T658)) (Homo sapiens, UniProt P42226); experiment: STAT6 Fluorescence Polarization (FP) Assay; type: binding; settings: STAT6(W123-T658) 250 nM, probe 5-FAM-ApYKPFQDLI-NH2 2 nM, 45-minute incubation
T1 construct: Recombinant STAT6 protein (STAT6(W123-T658))
T1 sequence (P42226 123-658): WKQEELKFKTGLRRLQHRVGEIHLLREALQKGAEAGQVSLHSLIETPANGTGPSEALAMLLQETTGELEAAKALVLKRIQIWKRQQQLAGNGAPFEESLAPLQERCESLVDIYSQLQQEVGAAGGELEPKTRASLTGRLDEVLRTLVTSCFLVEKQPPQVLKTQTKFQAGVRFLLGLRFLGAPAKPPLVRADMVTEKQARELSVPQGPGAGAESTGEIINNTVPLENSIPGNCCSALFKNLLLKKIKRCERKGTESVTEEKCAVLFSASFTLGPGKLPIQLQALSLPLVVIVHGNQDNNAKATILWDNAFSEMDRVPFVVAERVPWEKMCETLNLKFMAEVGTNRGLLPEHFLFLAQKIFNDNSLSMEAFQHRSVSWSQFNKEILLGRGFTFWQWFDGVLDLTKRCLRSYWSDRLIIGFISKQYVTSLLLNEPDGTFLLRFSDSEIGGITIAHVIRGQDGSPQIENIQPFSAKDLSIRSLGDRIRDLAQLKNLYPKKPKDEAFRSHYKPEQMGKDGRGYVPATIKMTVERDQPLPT
Summary of the method: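 Displacement of a fluorescent phosphotyrosine peptide (5-FAM-ApYKPFQDLI-NH2, 2 nM) from STAT6(W123-T658) (250 nM), 1% DMSO, pH 7.4 HEPES buffer. After 45 min at room temperature, polarization (mP) was plotted versus log compound concentration and fitted by nonlinear regression to give IC50.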

[2] = target: T2, Recombinant STAT3 protein (STAT3(G127-I722)) (Homo sapiens, UniProt P40763); experiment: STAT3 Fluorescence Polarization (FP) Assay; type: binding; settings: STAT3(G127-I722) 25 nM, probe 5-FAM-GpYLPQTV-NH2 2 nM, 45-minute incubation
T2 construct: Recombinant STAT3 protein (STAT3(G127-I722))
T2 sequence (P40763 127-722): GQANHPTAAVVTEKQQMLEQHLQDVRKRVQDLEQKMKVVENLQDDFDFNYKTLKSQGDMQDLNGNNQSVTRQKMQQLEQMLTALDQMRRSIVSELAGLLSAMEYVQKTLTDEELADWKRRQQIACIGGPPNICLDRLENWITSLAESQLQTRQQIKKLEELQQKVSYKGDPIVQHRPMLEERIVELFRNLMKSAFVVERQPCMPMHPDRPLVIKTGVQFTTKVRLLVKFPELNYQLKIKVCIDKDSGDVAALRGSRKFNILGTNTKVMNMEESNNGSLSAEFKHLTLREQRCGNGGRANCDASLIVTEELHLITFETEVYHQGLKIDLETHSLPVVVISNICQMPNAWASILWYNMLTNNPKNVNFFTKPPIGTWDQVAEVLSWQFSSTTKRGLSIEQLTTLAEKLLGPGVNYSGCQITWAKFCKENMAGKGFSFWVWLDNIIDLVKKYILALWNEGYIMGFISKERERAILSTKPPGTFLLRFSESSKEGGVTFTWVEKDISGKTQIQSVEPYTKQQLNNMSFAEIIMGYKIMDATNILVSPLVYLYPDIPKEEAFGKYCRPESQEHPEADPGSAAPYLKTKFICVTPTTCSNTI
Summary of the method: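 Fluorescence polarization after a 45-min room-temperature incubation measured compound displacement of a 2 nM fluorescein-labelled phosphotyrosine peptide (5-FAM-GpYLPQTV-NH2) from 25 nM recombinant STAT3(G127-I722). Buffer was 10 mM HEPES pH 7.4 with 1% DMSO final. IC50s were fitted by nonlinear regression of mP against log concentration.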

| Compound | IC50 [1] [µM] | IC50 [2] [µM] |
| --- | --- | --- |
| CC(=O)N1CC[C@H]2CC[C@@H](C(=O)N(C)C)N2C(=O)[C@@H](NC(=O)c2cc3cc(C(F)(F)P(=O)(O)O)ccc3[nH]2)C1 [Compound 29, ((2-(((5S,8S,10aR)-3-acetyl-8-(dimethylcarbamoyl)-6-oxodecahydropyrrolo[1,2-a][1,5]diazocin-5-yl)carbamoyl)-1H-indole-5-yl)difluoromethyl)phosphonic acid] | 0.3 to 3 | 1 to 10 |
| CC(=O)N1CC[C@H]2CC[C@@H](C(=O)N(C)c3ccccc3)N2C(=O)[C@@H](NC(=O)c2cc3cc(C(F)(F)P(=O)(O)O)ccc3[nH]2)C1 [Compound 30] | 0.3 to 3 | 1 to 10 |
| CC(=O)N1CC[C@H]2CC[C@@H](C(=O)N[C@H]3CCC[C@H]3N)N2C(=O)[C@@H](NC(=O)c2cc3cc(C(F)(F)P(=O)(O)O)ccc3[nH]2)C1 [Compound 31, ((2-(((5S,8S,10aR)-3-acetyl-8-(((1S,2R)-2-aminocyclopentyl)carbamoyl)-6-oxodecahydropyrrolo[1,2-a][1,5]diazocin-5-yl)carbamoyl)-1H-indol-5-yl)difluoromethyl)phosphonic acid] | 0.3 to 3 | 1 to 10 |
| CC(=O)N[C@H]1CCC[C@@H]1NC(=O)[C@@H]1CC[C@@H]2CCN(C(C)=O)C[C@H](NC(=O)c3cc4cc(C(F)(F)P(=O)(O)O)ccc4[nH]3)C(=O)N21 [Compound 32, ((2-(((5S,8S,10aR)-8-(((1S,2S)-2-acetamidocyclopentyl)carbamoyl)-3-acetyl-6-oxodecahydropyrrolo[1,2-a][1,5]diazocin-5-yl)carbamoyl)-1H-indol-5-yl)difluoromethyl)phosphonic acid] | 3 to 30 | 1 to 10 |
| CCN(C)CCCN(C)C(=O)[C@@H]1CC[C@@H]2CCN(C(C)=O)C[C@H](NC(=O)c3cc4cc(C(F)(F)P(=O)(O)O)ccc4[nH]3)C(=O)N21 [Compound 33, ((2-(((5S,8S,10aR)-3-acetyl-8-((3-(ethyl(methyl)amino)propyl)(methyl)carbamoyl)-6-oxodecahydropyrrolo[1,2-a][1,5]diazocin-5-yl)carbamoyl)-1H-indol-5-yl)difluoromethyl)phosphonic acid] | 3 to 30 | 1 to 10 |
| CCC(=O)N1CC[C@@H](NC(=O)[C@@H]2CC[C@@H]3CCN(C(C)=O)C[C@H](NC(=O)c4cc5cc(C(F)(F)P(=O)(O)O)ccc5[nH]4)C(=O)N32)C1 [Compound 34, ((2-(((5S,8S,10aR)-3-aceytl-6-oxo-8-(((R)-1-propionylpyrrolidin-3-yl)carbamoyl)decahydropyrrolo[1,2-a][1,5]diazocin-5-yl)carbamoyl)-1H-indol-5-yl)difluoromethyl)phosphonic acid] | 0.3 to 3 | 0.1 to 1 |
| CC(=O)N1CC[C@H]2CC[C@@H](C(=O)N3CCN(C(=O)OCc4ccccc4)CC3)N2C(=O)[C@@H](NC(=O)c2cc3cc(C(F)(F)P(=O)(O)O)ccc3[nH]2)C1 [Compound 35, ((2-(((5S,8S,10aR)-3-acetyl-8-(4-((benzyloxy)carbonyl)piperazine-1-carbonyl)-6-oxodecahydropyrrolo[1,2-a][1,5]diazocin-5-yl)carbamoyl)-1H-indol-5-yl)difluoromethyl)phosphonic acid] | 0.3 to 3 | 1 to 10 |
| CNC(=O)[C@@H]1CC[C@@H]2CCN(C(C)=O)C[C@H](NC(=O)c3cc4cc(C(F)(F)P(=O)(O)O)ccc4[nH]3)C(=O)N21 [Compound 36, ((2-(((5S,8S,10aR)-3-acetyl-8-(methylcarbamoyl)-6-oxodecahydropyrrolo[1,2-a][1,5]diazocin-5-yl)carbamoyl)-1H-indol-5-yl)difluoromethyl)phosphonic acid] | 0.3 to 3 | 1 to 10 |
| CC(=O)N1CC[C@H]2CC[C@@H](C(=O)N3CC(c4cc[nH]c(=O)c4)CC34CC4)N2C(=O)[C@@H](NC(=O)c2ccc3ccc(C(F)(F)P(=O)(O)O)cc3c2)C1 (stereo partly drawn) [Compound 37, ((7-(((5S,8S,10aR)-3-acetyl-6-oxo-8-(6-(2-oxo-1,2-dihydropyridin-4-yl)-4-azaspiro[2.4]heptane-4-carbonyl)decahydropyrrolo[1,2-a][1,5]diazocin-5-yl)carbamoyl)naphthalen-2-yl)difluoromethyl)phosphonic acid] | ≤ 0.3 | > 10 |
| CC(=O)N1CC[C@H](NC(=O)c2cc3cc(C(F)(F)P(=O)(O)O)ccc3s2)C(=O)N2[C@H](CC[C@H]2C(=O)N2CC(c3cccnc3)C2)C1 [Compound 40, ((2-(((5S,8S,10aR)-2-acetyl-6-oxo-8-(3-(pyridin-3-yl)azetidine-1-carbonyl)decahydropyrrolo[1,2-a][1,4]diazocin-5-yl)carbamoyl)benzo[b]thiophen-5-yl)difluoromethyl)phosphonic acid] | 3 to 30 | ≤ 0.1 |
| CC(=O)N1CC[C@H]2CC[C@@H](C(=O)N3C[C@@H](C#N)C[C@@H]3Cc3ccccc3)N2C(=O)[C@@H](NC(=O)c2cc3cc(C(F)(F)P(=O)(O)O)ccc3s2)C1 [Compound 42, ((2-(((5S,8S,10aR)-3-acetyl-8-((2R,4S)-2-benzyl-4-cyanopyrrolidine-1-carbonyl)-6-oxodecahydropyrrolo[1,2-a][1,5]diazocin-5-yl)carbamoyl)benzo[b]thiophen-5-yl)difluoromethyl)phosphonic acid] | 0.3 to 3 | 1 to 10 |

Continued, values first:

| IC50 [1] [µM] | IC50 [2] [µM] | Compound |
| --- | --- | --- |
| 0.3 to 3 | 1 to 10 | CC(=O)N1CC[C@H]2CC[C@@H](C(=O)N3C[C@H](C#N)C[C@@H]3Cc3ccccc3)N2C(=O)[C@@H](NC(=O)c2cc3cc(C(F)(F)P(=O)(O)O)ccc3s2)C1 [Compound 43, ((2-(((5S,8S,10aR)-3-acetyl-8-((2R,4R)-2-benzyl-4-cyanopyrrolidine-1-carbonyl)-6-oxodecahydropyrrolo[1,2-a][1,5]diazocin-5-yl)carbamoyl)benzo[b]thiophen-5-yl)difluoromethyl)phosphonic acid] |
| 3 to 30 | 0.1 to 1 | CC(=O)N1CC[C@H]2CC[C@@H](C(=O)Nc3c(C)cc(-c4ccccc4)cc3C)N2C(=O)[C@@H](NC(=O)c2cc3cc(C(F)(F)P(=O)(O)O)ccc3s2)C1 [Compound 44, ((2-(((5S,8S,10aR)-3-acetyl-8-((3,5-dimethyl-[1,1′-biphenyl]-4-yl)carbamoyl)-6-oxodecahydropyrrolo[1,2-a][1,5]diazocin-5-yl)carbamoyl)benzo[b]thiophen-5-yl)difluoromethyl)phosphonic acid] |
| > 30 | > 10 | CC(=O)N1CC[C@H]2CC[C@@H](C(=O)N(C)c3ccccc3)N2C(=O)[C@@H](NC(=O)/C(C)=C/c2cccc(C(F)(F)P(=O)(O)O)c2)C1 [Compound 45, ((3-((E)-3-(((5S,8S,10aR)-3-acetyl-8-(methyl(phenyl)carbamoyl)-6-oxodecahydropyrrolo[1,2-a][1,5]diazocin-5-yl)amino)-2-methyl-3-oxoprop-1-en-1-yl)phenyl)difluoromethyl)phosphonic acid] |
| 0.3 to 3 | 1 to 10 | CC(=O)N1CC[C@H]2CC[C@@H](C(=O)Nc3ccc(-c4ccccc4)cc3)N2C(=O)[C@@H](NC(=O)c2cc3cc(C(F)(F)P(=O)(O)O)c(F)cc3s2)C1 [Compound 46, ((2-(((5S,8S,10aR)-8-([1,1′-biphenyl]-4-ylcarbamoyl)-3-acetyl-6-oxodecahydropyrrolo[1,2-a][1,5]diazocin-5-yl)carbamoyl)-6-fluorobenzo[b]thiophen-5-yl)difluoromethyl)phosphonic acid] |
| 0.3 to 3 | 1 to 10 | CC(=O)N1CC[C@H]2CC[C@@H](C(=O)N(C)c3ccc(C4(C)COC4)cc3)N2C(=O)[C@@H](NC(=O)c2cc3cc(C(F)(F)P(=O)(O)O)ccc3s2)C1 [Compound 47, ((2-(((5S,8S,10aR)-3-acetyl-8-(methyl(4-(3-methyloxetan-3-yl)phenyl)carbamoyl)-6-oxodecahydropyrrolo[1,2-a][1,5]diazocin-5-yl)carbamoyl)benzo[b]thiophen-5-yl)difluoromethyl)phosphonic acid] |
| 0.3 to 3 | 0.1 to 1 | CC(=O)N1CC[C@H]2CC[C@@H](C(=O)Nc3ccc(-c4ccccc4)cc3)N2C(=O)[C@@H](NC(=O)c2cc3c(F)c(C(F)(F)P(=O)(O)O)ccc3s2)C1 [Compound 48, ((2-(((5S,8S,10aR)-8-([1,1′-biphenyl]-4-ylcarbamoyl)-3-acetyl-6-oxodecahydropyrrolo[1,2-a][1,5]diazocin-5-yl)carbamoyl)-4-fluorobeno[b]thiophen-5-yl)difluoromethyl)phosphonic acid] |
